System: C57BL/6 mice
Experiment: Warm renal ischemia/reperfusion, 30 minutes ischemia (Example 2)
Assay type: in vivo
Details: mean±SEM, n=6, 1 day after 30 min ischemia/reperfusion
Method: Nine Experimental groups were used as follows: • 1) Sham-operated mice sacrificed 1 day after surgery, n=6, • 2) PBS-vehicle-treated mice 15 min before ischemia/1 day reperfusion, n=6, • 3) Isotype control antibody 10 mg/kg-treated mice 15 minutes before ischemia/1 day reperfusion, n=6 (The isotype control antibody is mouse IgG1 isotype control purchased from RnD systems (catalogue number MAB002), this isotype control antibody having binding specificity for Keyhole Limpet Hemocyanin (KLH) antigen), • 4) OPN301 anti-TLR2 monoclonal antibody 10 mg/kg-treated mice 15 minutes before ischemia/1 day reperfusion, n=6, • 5) Pargyline 6 mg/kg-treated mice 15 minutes before ischemia/1 day reperfusion, n=6, • 6) PBS-vehicle-treated mice 15 minutes before ischemia/5 days reperfusion, n=6, • 7) Isotype control antibody (RnD systems catalogue number MAB002) 10 mg/kg-treated mice 15 minutes before ischemia/5 days reperfusion, n=6, • 8) OPN301 anti-TLR2 antibody 10 mg/kg-treated mice 15 minutes before ischemia/5 days reperfusion, n=6, • 9) Pargyline 6 mg/kg-treated mice 15 minutes before ischemia/5 days reperfusion, n=6. Experimental Warm Renal Ischemia/Reperfusion
Warm renal ischemia/reperfusion (I/R) experiments were adapted from a previous study (Stokman et al, 2005). Briefly, a wild type strain of C57BL/6 mice were anesthetized with 10 μl/g of a mix of 2.5 ml ketamine (Ketalar 50 mg/ml, Centravet; Lapalisse, France), 0.5 ml xylazine (Rompun 2.5%, Centravet; Lapalisse, France), and 7 ml NaCl 0.9% (Centravet; Lapalisse, France). During surgery, animals were set on a 35° C. hotplate. After a 2 millimeters incision, the jugular vein was exposed for intravenous injection (insulin syringe; VWR, Fontenay-sous-Bois, France) of 300 μl (1 min infusion) of the considered treatment. The incision was closed after haemostasis (5/0 Ethicrin thread, Ethicon; Auneau, France). Three centimetre in length abdominal cutaneous and muscular incisions were performed; renal pedicles were exposed and clamped for 30 minutes using microaneurysm clamps (AREX; Palaiseau, France). […]

C#CCN(C)Cc1ccccc1 [Pargyline]
MDA level (lipid peroxidation) (PBS-vehicle 0.082±0.004): 0.051±0.002 nmol/mg proteins | MPO activity (neutrophil accumulation in renal tissue) (PBS-vehicle 63.2±9.55): 53.48±5.34 U MPO/mg protein | F4/80-positive staining (macrophage infiltration) (treated 15 min before ischemia (antibodies 10 mg/kg, pargyline 6 mg/kg), PBS-vehicle 3.24±0.21): 1.39±0.15%
